Where two headings read alike, the source gives them in different places.
Assays:
Format in all cases: cell-based
[1] = molecular target: T1, hGCGR (Homo sapiens, UniProt P47871); test: Functional cAMP formation (HTRF) in HEK-293 clonal cells expressing hGCGR, 0.1% bovine casein, without or with 1.0% human serum albumin; details: read-out: hGCGR EC50, nM (SEM, n)
T1 construct: expressed in transfected cells
Procedure, shortened: (§1)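 Readings of the HTRF 665/620 nm ratio, which falls as cAMP rises, were converted to nM cAMP using a standard curve after 30 min peptide exposure at 37° C.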

[2] = molecular target: hGLP-1R (Homo sapiens, UniProt P43220); test: Functional cAMP formation (HTRF) in HEK-293 clonal cells expressing hGLP-1R, 0.1% bovine casein, without or with 1.0% human serum albumin; design: expressed in transfected cells; details: for Emax: read-out: hGLP-1R Emax, % ± SEM; for EC50: geometric mean, read-out: hGLP-1R EC50, nM (SEM, n)
Procedure, shortened: as §1

[3] = molecular target: T2, hGIPR (Homo sapiens, UniProt P48546); test: Functional cAMP formation (HTRF) in HEK-293 clonal cells expressing hGIPR, 0.1% bovine casein, without or with 1.0% human serum albumin; details: for Emax: read-out: hGIPR Emax, % ± SEM; for EC50: geometric mean, read-out: hGIPR EC50, nM (SEM, n)
T2 construct: expressed in transfected cells
T2 sequence (P48546 22-466): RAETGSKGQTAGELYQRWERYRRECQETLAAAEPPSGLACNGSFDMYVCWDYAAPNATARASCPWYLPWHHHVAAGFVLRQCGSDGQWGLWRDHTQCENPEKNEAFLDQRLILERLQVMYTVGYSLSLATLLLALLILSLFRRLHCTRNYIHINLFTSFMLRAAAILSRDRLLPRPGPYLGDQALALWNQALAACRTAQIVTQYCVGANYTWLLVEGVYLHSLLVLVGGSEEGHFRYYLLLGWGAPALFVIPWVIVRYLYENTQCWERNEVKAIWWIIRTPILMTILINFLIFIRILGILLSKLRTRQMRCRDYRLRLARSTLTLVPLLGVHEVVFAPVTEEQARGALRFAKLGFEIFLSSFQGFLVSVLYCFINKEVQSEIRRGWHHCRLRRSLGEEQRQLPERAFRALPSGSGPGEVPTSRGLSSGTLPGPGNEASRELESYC
Procedure, shortened: as §1

[4] = cAMP, incubated at 37° C., 0.1% bovine casein (no human serum albumin), geometric mean
[5] = HEK293, percent of maximal response to GLP-1(7-36)NH2, 37° C., 0.1% bovine casein, arithmetic mean
[6] = cAMP, incubated at 37° C., 0.1% bovine casein (no human serum albumin)
[7] = cAMP, 37° C., 0.1% bovine casein (no human serum albumin), geometric mean
[8] = HEK293, cAMP, 37° C., 0.1% bovine casein, percent of maximal response to GLP-1(7-36)NH2, arithmetic mean
[9] = cAMP, 37° C., 0.1% bovine casein (no human serum albumin)
[10] = 0.1% bovine casein and 1.0% human serum albumin, 37° C., geometric mean
[11] = HEK293, 0.1% bovine casein and 1.0% human serum albumin, 37° C., percent of maximal response to GLP-1(7-36)NH2
[12] = HEK293, 0.1% bovine casein and 1.0% human serum albumin, 37° C., percent of maximal response to GIP(1-42)NH2
[13] = 0.1% bovine casein and 1.0% human serum albumin, 37° C.

T1 sequence (P47871 26-477): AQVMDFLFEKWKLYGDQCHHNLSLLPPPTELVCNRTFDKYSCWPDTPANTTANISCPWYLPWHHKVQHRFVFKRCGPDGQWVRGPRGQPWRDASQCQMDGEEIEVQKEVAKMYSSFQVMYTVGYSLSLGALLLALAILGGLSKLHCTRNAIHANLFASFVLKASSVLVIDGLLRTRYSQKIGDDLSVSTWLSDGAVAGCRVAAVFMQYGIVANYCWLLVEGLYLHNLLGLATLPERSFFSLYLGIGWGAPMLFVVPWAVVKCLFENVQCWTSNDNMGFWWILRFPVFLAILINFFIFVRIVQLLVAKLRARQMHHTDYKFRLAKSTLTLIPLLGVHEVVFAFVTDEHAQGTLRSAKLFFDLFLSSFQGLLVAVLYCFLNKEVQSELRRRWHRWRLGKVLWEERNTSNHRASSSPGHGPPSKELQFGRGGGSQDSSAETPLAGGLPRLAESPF
Chain of hGLP-1R (P43220 24-463): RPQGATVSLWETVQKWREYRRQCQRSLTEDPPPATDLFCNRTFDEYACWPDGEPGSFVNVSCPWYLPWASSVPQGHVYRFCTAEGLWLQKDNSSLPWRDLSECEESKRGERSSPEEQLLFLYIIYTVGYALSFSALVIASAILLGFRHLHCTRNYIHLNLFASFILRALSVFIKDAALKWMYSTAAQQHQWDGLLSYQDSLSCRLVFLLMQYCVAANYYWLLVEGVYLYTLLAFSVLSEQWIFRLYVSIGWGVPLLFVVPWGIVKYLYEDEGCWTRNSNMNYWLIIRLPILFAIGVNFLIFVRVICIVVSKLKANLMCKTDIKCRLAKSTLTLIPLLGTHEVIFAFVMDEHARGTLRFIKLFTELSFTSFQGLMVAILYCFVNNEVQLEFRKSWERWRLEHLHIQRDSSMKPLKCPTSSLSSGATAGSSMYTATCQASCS

| SMILES | EC50 [1, 4] [nM] | Emax [2, 5] [%] | EC50 [1, 7] [nM] | Emax [2, 8] [%] | EC50 [2, 9] [nM] | EC50 [3, 9] [nM] | EC50 [1, 10] [nM] | Emax [2, 11] [%] | Emax [3, 12] [%] | other results |
| --- | --- | --- | --- | --- | --- | --- | --- | --- | --- | --- |
| CC[C@H](C)[C@H](NC(=O)[C@H](CC(C)C)NC(=O)[C@](C)(Cc1ccc(O)cc1)NC(=O)[C@@H](CCC(=O)O)NC(=O)[C@@H](NC(=O)[C@H](Cc1ccccc1)NC(=O)[C@H](CCC(=O)O)NC(=O)C(C)(C)NC(=O)[C@H](CCC(N)=O)NC(=O)[C@H](C)NC(=O)[C@H](CCCCNC(=O)COCCOCCNC(=O)COCCOCCNC(=O)[C@@H](N)CCCCNC(=O)CCCCCCCCCCCCC(=O)O)NC(=O)[C@H](CCCN)NC(=O)[C@H](CC(=O)O)NC(=O)[C@H](CC(C)C)NC(=O)[C@](C)(CC(C)C)NC(=O)[C@@H](NC(=O)C(C)(C)NC(=O)[C@@H](NC(=O)[C@H](CC(=O)O)NC(=O)[C@H](CO)NC(=O)[C@@H](NC(=O)[C@](C)(Cc1ccccc1F)NC(=O)[C@@H](NC(=O)CNC(=O)[C@H](CCC(=O)O)NC(=O)C(C)(C)NC(=O)[C@@H](N)Cc1ccc(O)cc1)[C@@H](C)O)[C@@H](C)O)C(C)C)[C@@H](C)CC)[C@@H](C)CC)C(=O)N[C@@H](CCC(=O)O)C(=O)NCC(=O)NCC(=O)N[C@@H](CCCCNC(=O)COCCOCCNC(=O)COCCOCCNC(=O)[C@@H](N)CCCCNC(=O)CCCCCCCCCCCCC(=O)O)C(=O)N[C@@H](CO)C(=O)N[C@@H](CO)C(=O)NCC(=O)N[C@@H](C)C(=O)N1CCC[C@H]1C(=O)N1CCC[C@H]1C(=O)N1CCC[C@H]1C(=O)N[C@@H](CO)C(N)=O [Example 163] | > 9950 | 86.3 | – | – | – | – | – | – | – | EC50 [2, 6]: 0.199 nM; Emax ([3]; HEK293, percent of maximal response to GIP(1-42)NH2, 37° C., 0.1% bovine casein, arithmetic mean): 98.2%; EC50 [3, 6]: 0.0427 nM |
| CC[C@H](C)[C@H](NC(=O)[C@H](CC(C)C)NC(=O)[C@](C)(Cc1ccc(O)cc1)NC(=O)[C@@H](CCC(=O)O)NC(=O)[C@@H](NC(=O)[C@H](Cc1ccccc1)NC(=O)[C@H](CCC(=O)O)NC(=O)C(C)(C)NC(=O)[C@H](CCC(N)=O)NC(=O)[C@H](C)NC(=O)[C@H](CCCCNC(=O)COCCOCCNC(=O)COCCOCCNC(=O)CC[C@H](NC(=O)CCCCCCCCCCCCC(=O)O)C(=O)O)NC(=O)[C@H](CCCN)NC(=O)[C@H](CC(=O)O)NC(=O)[C@H](CC(C)C)NC(=O)[C@](C)(CC(C)C)NC(=O)[C@@H](NC(=O)C(C)(C)NC(=O)[C@@H](NC(=O)[C@H](CC(=O)O)NC(=O)[C@H](CO)NC(=O)[C@@H](NC(=O)[C@](C)(Cc1ccccc1F)NC(=O)[C@@H](NC(=O)CNC(=O)[C@H](CCC(=O)O)NC(=O)C(C)(C)NC(=O)[C@@H](N)Cc1ccc(O)cc1)[C@@H](C)O)[C@@H](C)O)C(C)C)[C@@H](C)CC)[C@@H](C)CC)C(=O)N[C@@H](CCCCNC(=O)COCCOCCNC(=O)COCCOCCNC(=O)CC[C@H](NC(=O)CCCCCCCCCCCCC(=O)O)C(=O)O)C(=O)NCC(=O)NCC(=O)N1CCC[C@H]1C(=O)N[C@@H](CO)C(=O)N[C@@H](CO)C(=O)NCC(=O)N[C@@H](C)C(=O)N1CCC[C@H]1C(=O)N1CCC[C@H]1C(=O)N1CCC[C@H]1C(=O)N[C@@H](CO)C(N)=O [Example 325] | – | – | > 9950 | 97.8 | 0.225 | 0.0485 | – | – | – | EC50 ([1]; cAMP, 37° C., 0.1% bovine casein and 1.0% human serum albumin, geometric mean (SEM, n)): > 9950 nM; Emax ([3]; HEK293, cAMP, 37° C., 0.1% bovine casein and 1.0% human serum albumin, percent of maximal response to GIP(1-42)NH2): 94.7% |
| CCCCCCCCCCCC(=O)N[C@@H](CCC(=O)NCCOCCOCC(=O)NCCOCCOCC(=O)NCCCC[C@H](NC(=O)[C@H](CCCN)NC(=O)[C@H](CC(=O)O)NC(=O)[C@H](CC(C)C)NC(=O)[C@](C)(CC(C)C)NC(=O)[C@@H](NC(=O)[C@H](CO)NC(=O)[C@H](Cc1ccc(OC)cc1)NC(=O)[C@H](CC(=O)O)NC(=O)[C@H](CO)NC(=O)[C@@H](NC(=O)[C@](C)(Cc1ccccc1F)NC(=O)[C@@H](NC(=O)CNC(=O)[C@H](CCC(=O)O)NC(=O)C(C)(C)NC(=O)[C@@H](N)Cc1ccc(O)cc1)[C@@H](C)O)[C@@H](C)O)[C@@H](C)CC)C(=O)N[C@@H](C)C(=O)N[C@@H](CCC(N)=O)C(=O)NC(C)(C)C(=O)N[C@@H](CCCCNC(=O)COCCOCCNC(=O)COCCOCCNC(=O)CC[C@H](NC(=O)CCCCCCCCCCC)C(=O)O)C(=O)N[C@@H](Cc1ccccc1)C(=O)N[C@H](C(=O)N[C@H](CCC(=O)O)C(=O)N[C@@](C)(Cc1ccc(O)cc1)C(=O)N[C@@H](CC(C)C)C(=O)N[C@H](C(=O)N[C@@H](CCC(=O)O)C(=O)NCC(=O)NCC(=O)N1CCC[C@H]1C(=O)N[C@@H](CO)C(=O)N[C@@H](CO)C(=O)NCC(=O)N[C@@H](C)C(=O)N1CCC[C@H]1C(=O)N1CCC[C@H]1C(=O)N1CCC[C@H]1C(=O)N[C@@H](CO)C(N)=O)[C@@H](C)CC)[C@@H](C)CC)C(=O)O [Example 289] | – | – | > 9950 | 96.7 | – | 0.017 | > 9950 | 170 | 94.9 | Emax ([3]; HEK293, cAMP, 37° C., 0.1% bovine casein, percent of maximal response to GIP(1-42)NH2, arithmetic mean): 111% |
| CCCCCCCCCCCC(=O)N[C@@H](CCC(=O)NCCOCCOCC(=O)NCCOCCOCC(=O)NCCCC[C@H](NC(=O)[C@H](CCCN)NC(=O)[C@H](CC(=O)O)NC(=O)[C@H](CC(C)C)NC(=O)[C@](C)(CC(C)C)NC(=O)[C@@H](NC(=O)[C@H](CO)NC(=O)[C@H](Cc1ccncc1)NC(=O)[C@H](CC(=O)O)NC(=O)[C@H](CO)NC(=O)[C@@H](NC(=O)[C@](C)(Cc1ccccc1F)NC(=O)[C@@H](NC(=O)CNC(=O)[C@H](CCC(=O)O)NC(=O)C(C)(C)NC(=O)[C@@H](N)Cc1ccc(O)cc1)[C@@H](C)O)[C@@H](C)O)[C@@H](C)CC)C(=O)N[C@@H](C)C(=O)N[C@@H](CCC(N)=O)C(=O)NC(C)(C)C(=O)N[C@@H](CCCN)C(=O)N[C@@H](Cc1ccccc1)C(=O)N[C@H](C(=O)N[C@H](CCC(=O)O)C(=O)N[C@@](C)(Cc1ccc(O)cc1)C(=O)N[C@@H](CC(C)C)C(=O)N[C@H](C(=O)N[C@@H](CCCCNC(=O)COCCOCCNC(=O)COCCOCCNC(=O)CC[C@H](NC(=O)CCCCCCCCCCC)C(=O)O)C(=O)NCC(=O)NCC(=O)N1CCC[C@H]1C(=O)N[C@@H](CO)C(=O)N[C@@H](CO)C(=O)NCC(=O)N[C@@H](C)C(=O)N1CCC[C@H]1C(=O)N1CCC[C@H]1C(=O)N1CCC[C@H]1C(=O)N[C@@H](CO)C(N)=O)[C@@H](C)CC)[C@@H](C)CC)C(=O)O [Example 299] | – | – | > 9950 | – | 0.126 | 0.0104 | > 9950 | – | – | – |
| CCCCCCCCCCCCCCCC(=O)N[C@@H](CCC(=O)NCCOCCOCC(=O)NCCOCCOCC(=O)NCCOCCOCC(=O)NCCCC[C@H](NC(=O)CNC(=O)CNC(=O)[C@H](CCC(=O)O)NC(=O)[C@@H](NC(=O)[C@H](CC(C)C)NC(=O)[C@](C)(Cc1ccc(O)cc1)NC(=O)[C@@H](CCC(=O)O)NC(=O)[C@@H](NC(=O)[C@H](Cc1ccccc1)NC(=O)[C@H](CCC(=O)O)NC(=O)C(C)(C)NC(=O)[C@H](CCC(N)=O)NC(=O)[C@H](C)NC(=O)[C@H](CCCCNC(=O)COCCOCCNC(=O)COCCOCCNC(=O)COCCOCCNC(=O)CC[C@H](NC(=O)CCCCCCCCCCCCCCC)C(=O)O)NC(=O)[C@H](CCCN)NC(=O)[C@H](CC(=O)O)NC(=O)[C@H](CC(C)C)NC(=O)[C@](C)(CC(C)C)NC(=O)[C@@H](NC(=O)[C@H](CO)NC(=O)[C@H](Cc1ccncc1)NC(=O)[C@H](CC(=O)O)NC(=O)[C@H](CO)NC(=O)[C@@H](NC(=O)[C@](C)(Cc1ccccc1F)NC(=O)[C@@H](NC(=O)CNC(=O)[C@H](CCC(=O)O)NC(=O)C(C)(C)NC(=O)[C@@H](N)Cc1ccc(O)cc1)[C@@H](C)O)[C@@H](C)O)[C@@H](C)CC)[C@@H](C)CC)[C@@H](C)CC)C(=O)N[C@@H](CO)C(=O)N[C@@H](CO)C(=O)NCC(=O)N[C@@H](C)C(=O)N1CCC[C@H]1C(=O)N1CCC[C@H]1C(=O)N1CCC[C@H]1C(=O)N[C@@H](CO)C(N)=O)C(=O)O [Example 31] | > 9950 | 91.3 ± 16.1 | – | – | – | – | > 9950 | 109 ± 7.91 | 88.9 | EC50 [2, 13]: 0.545 nM; EC50 [3, 13]: 0.147 nM |

From patent US20230265151A1, “GIP/GLP1 CO-AGONIST COMPOUNDS” (priority 2020, published 2023)
